Laboratory results: ChEMBL document CHEMBL4118210, “Synthesis of novel hetero ring fused pyridine derivatives; Their anticancer activity, CoMFA and CoMSIA studies” (Bioorg Med Chem Lett, 2018)

Key:
COLO 205 = assay: Antiproliferative activity against human COLO205 cells by MTT assay; format: functional, cell-based
HeLa = assay: Antiproliferative activity against human HeLa cells by MTT assay; format: functional, cell-based
MCF7 = assay: Antiproliferative activity against human MCF7 cells by MTT assay; format: functional, cell-based
HepG2 = assay: Antiproliferative activity against human HepG2 cells by MTT assay; format: functional, cell-based
HEK293 = assay: Antiproliferative activity against human HEK293 cells by MTT assay; format: cell-based

SMILES	IC50 (COLO 205; read-out: IC50)	IC50 (COLO 205; read-out: pIC50 (converted)) [µM]	IC50 (HeLa; read-out: IC50)	IC50 (MCF7; read-out: IC50)	IC50 (MCF7; read-out: pIC50 (converted)) [µM]	IC50 (HepG2)	IC50 (HEK293)	IC50 (HeLa; read-out: pIC50 (converted)) [µM]
O=c1c2oc3nc(-c4cccs4)cc(C(F)(F)F)c3c2ncn1C1CCCC1	42.5 µM	42.7	50.2 µM	62.7 µM	63.1	49.8 µM	> 220 µg/mL	–
Cc1ccc(/C=N/NC(=O)c2oc3nc(-c4ccccc4)cc(C(F)(F)F)c3c2N)cc1	9.1 µM	9.12	11.8 µM	10.2 µM	10.2	8.9 µM	69 µM	11.7
CCCNC(=O)c1oc2nc(-c3cccs3)cc(C(F)(F)F)c2c1N	15.3 µM	15.5	18.9 µM	20.4 µM	20.4	17.2 µM	64 µM	19.1
O=c1c2oc3nc(-c4cccs4)cc(C(F)(F)F)c3c2ncn1/N=C/c1ccc(Br)cc1	> 220 µg/mL	–	> 220 µg/mL	> 220 µg/mL	–	> 220 µg/mL	> 220 µg/mL	–
CCCn1c(C)nc2c(oc3nc(-c4ccccc4)cc(C(F)(F)F)c32)c1=O	> 220 µg/mL	–	> 220 µg/mL	117 µM	117	> 220 µg/mL	52 µM	–
O=c1c2oc3nc(-c4ccccc4)cc(C(F)(F)F)c3c2ncn1C1CCCC1	> 220 µg/mL	–	> 220 µg/mL	> 220 µg/mL	–	> 220 µg/mL	> 220 µg/mL	–
CCCn1c(C)nc2c(oc3nc(-c4cccs4)cc(C(F)(F)F)c32)c1=O	18.9 µM	19.1	28.5 µM	31.5 µM	31.6	22.8 µM	68 µM	28.8
Cn1cnc2c(oc3nc(-c4ccccc4)cc(C(F)(F)F)c32)c1=O	> 220 µg/mL	9.77	> 220 µg/mL	> 220 µg/mL	–	221 µM	> 220 µg/mL	–
Nc1c(C(=O)N/N=C/c2ccc(Br)cc2)oc2nc(-c3ccccc3)cc(C(F)(F)F)c12	21.2 µM	21.4	23.9 µM	18.7 µM	18.6	19.9 µM	64 µM	24
CCn1c(C)nc2c(oc3nc(-c4cccs4)cc(C(F)(F)F)c32)c1=O	> 220 µg/mL	–	> 220 µg/mL	> 220 µg/mL	–	> 220 µg/mL	> 220 µg/mL	–
CCCNC(=O)c1oc2nc(-c3ccccc3)cc(C(F)(F)F)c2c1N	38.9 µM	38.9	36.1 µM	35.6 µM	35.5	37.4 µM	81 µM	36.3
Nc1c(C(=O)N/N=C/c2ccc(Br)cc2)oc2nc(-c3cccs3)cc(C(F)(F)F)c12	5.9 µM	5.89	6.4 µM	5.2 µM	5.25	6.1 µM	86 µM	6.46
Nc1c(C(=O)N/N=C/c2ccc(Cl)cc2)oc2nc(-c3ccccc3)cc(C(F)(F)F)c12	11.1 µM	11.2	4.1 µM	11.9 µM	12	12.1 µM	81 µM	4.07
O=c1c2oc3nc(-c4ccccc4)cc(C(F)(F)F)c3c2ncn1/N=C/c1ccc(Cl)cc1	43.6 µM	43.7	> 220 µg/mL	56.8 µM	57.5	> 220 µg/mL	> 220 µg/mL	–
CNC(=O)c1oc2nc(-c3ccccc3)cc(C(F)(F)F)c2c1N	36.8 µM	37.2	40.2 µM	37.4 µM	37.2	41.2 µM	62 µM	45.7
Cn1cnc2c(oc3nc(-c4cccs4)cc(C(F)(F)F)c32)c1=O	> 220 µg/mL	–	> 220 µg/mL	> 220 µg/mL	–	> 220 µg/mL	> 220 µg/mL	50.1
Cc1nc2c(oc3nc(-c4ccccc4)cc(C(F)(F)F)c32)c(=O)n1C1CCCC1	18.7 µM	18.6	18.2 µM	22.8 µM	22.9	17.1 µM	96 µM	18.2
CCNC(=O)c1oc2nc(-c3cccs3)cc(C(F)(F)F)c2c1N	18.7 µM	18.6	14.2 µM	21.8 µM	21.9	12.1 µM	62 µM	14.1
CCCn1cnc2c(oc3nc(-c4ccccc4)cc(C(F)(F)F)c32)c1=O	> 220 µg/mL	–	> 220 µg/mL	85.5 µM	85.1	> 220 µg/mL	90 µM	–
CCn1c(C)nc2c(oc3nc(-c4ccccc4)cc(C(F)(F)F)c32)c1=O	> 220 µg/mL	–	> 220 µg/mL	> 220 µg/mL	–	> 220 µg/mL	> 220 µg/mL	–
